Patent US8299048B2, “Hexahydrocyclopentyl[f]indazole sulfonamides and derivatives thereof as selective glucocorticoid receptor modulators” (Merck Sharp & Dohme Corp., priority 2008, dated 2012)

Target: T1, human GR (Homo sapiens, UniProt P04150)
T1 sequence (P04150 1-777): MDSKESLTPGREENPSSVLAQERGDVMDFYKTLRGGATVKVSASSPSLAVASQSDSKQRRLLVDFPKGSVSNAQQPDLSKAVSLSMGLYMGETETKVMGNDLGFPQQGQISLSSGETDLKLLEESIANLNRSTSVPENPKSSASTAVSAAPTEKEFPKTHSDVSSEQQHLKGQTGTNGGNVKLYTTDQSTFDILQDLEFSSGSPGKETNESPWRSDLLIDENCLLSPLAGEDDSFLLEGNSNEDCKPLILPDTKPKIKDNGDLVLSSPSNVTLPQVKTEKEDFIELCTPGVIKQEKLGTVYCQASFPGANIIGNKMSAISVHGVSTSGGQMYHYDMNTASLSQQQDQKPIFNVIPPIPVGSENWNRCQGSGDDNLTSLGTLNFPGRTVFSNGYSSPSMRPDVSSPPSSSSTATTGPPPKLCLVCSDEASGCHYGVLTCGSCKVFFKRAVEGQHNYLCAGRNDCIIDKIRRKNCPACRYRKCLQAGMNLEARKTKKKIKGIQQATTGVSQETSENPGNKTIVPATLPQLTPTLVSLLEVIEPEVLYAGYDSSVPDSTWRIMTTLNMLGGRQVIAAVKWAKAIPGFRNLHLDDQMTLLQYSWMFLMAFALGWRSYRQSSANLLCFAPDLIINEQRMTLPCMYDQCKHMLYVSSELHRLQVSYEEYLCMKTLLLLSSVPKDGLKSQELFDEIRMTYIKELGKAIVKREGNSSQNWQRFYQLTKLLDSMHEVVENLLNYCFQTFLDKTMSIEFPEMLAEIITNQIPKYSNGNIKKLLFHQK
Assay: Trans-Activation Modulation of Glucocorticoid Receptor (GRAMMER), MMTV-LUC reporter, agonist mode
Format: cell-based
Design: endogenous in cells
Settings: for Emax: A549, A549 cells, maximum activity, read-out: Transactivation A549 Cells GRAMMER Emax; for EC50: A549 cells, inflection point, read-out: Transactivation A549 Cells GRAMMER IP
Summary of the method: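 Readout is luciferase from a modified MMTV LTR promoter after 24 h compound exposure alongside 10 nM dexamethasone (100% activity reference), DMSO ≤1%.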

C[C@]12Cc3cnn(-c4ccc(F)cc4)c3C=C1CC[C@@H]2CN(CCO)S(=O)(=O)c1cccc(C#N)c1 [Example 68, 3-cyano-N-{[(4αR,5S)-1-(4-fluorophenyl)-4α-methyl-1,4,4α,5,6,7-hexahydrocyclopenta[f]indazol-5-yl]methyl}-N-(2-hydroxyethyl)benezenesulfonamide]
Emax: 10% | EC50: 951 nM

C[C@]12Cc3cnn(-c4ccc(F)cc4)c3C=C1CC[C@@H]2CN(CCO)S(=O)(=O)c1ccc(Oc2cccc(Cl)c2C#N)cc1 [Example 69, 4-(3-chloro-2-cyanophenoxy)-N-{[(4αR,5S)-1-(4-fluorophenyl)-4α-methyl-1,4,4α,5,6,7-hexahydrocyclopenta[f]indazol-5-yl]methyl}-N-(2-hydroxyethyl)benzenesulfonamide]
Emax: 12.6% | EC50: 852 nM

C[C@]12Cc3cnn(-c4ccc(F)cc4)c3C=C1CC[C@@H]2CN(CCO)S(=O)(=O)c1ccccc1C(F)(F)F [Example 70, N-{[(4αR,5S)-1-(4-fluorophenyl)-4α-methyl-1,4,4α,5,6,7-hexahydrocyclopenta[f]indazol-5-yl]methyl}-N-(2-hydroxyethyl)-2-(trifluoromethyl)benzenesulfonamide]
Emax: 25.8% | EC50: 564 nM

Cc1noc(C)c1S(=O)(=O)N(CCO)C[C@H]1CCC2=Cc3c(cnn3-c3ccc(F)cc3)C[C@@]21C [Example 71, N-{[(4αR,5S)-1-(4-fluorophenyl)-4α-methyl-1,4,4α,5,6,7-hexahydrocyclopenta[f]indazol-5-yl]methyl}-N-(2-hydroxyethyl)-3,5-dimethylisoxazole-4-sulfonamide]
Emax: 63.1% | EC50: 257 nM

C[C@]12Cc3cnn(-c4ccc(F)cc4)c3C=C1CC[C@@H]2CN(CCO)S(=O)(=O)c1cc(F)cc(F)c1 [Example 72]
Emax: 35.3% | EC50: 475 nM

COC(=O)c1ccccc1S(=O)(=O)N(CCO)C[C@H]1CCC2=Cc3c(cnn3-c3ccc(F)cc3)C[C@@]21C [Example 73, methyl 2-{[{[(4αR,5S)-1-(4-fluorophenyl)-4α-methyl-1,4,4α,5,6,7-hexahydrocyclopenta[f]indazol-5-yl]methyl}(2-hydroxyethyl)amino]sulfonyl}benzoate]
Emax: 25.4% | EC50: 364 nM

C[C@]12Cc3cnn(-c4ccc(F)cc4)c3C=C1CC[C@@H]2CN(CCO)S(=O)(=O)c1ccc(Oc2ccccn2)cc1 [Example 74, N-{[(4αR,5S)-1-(4-fluorophenyl)-4α-methyl-1,4,4α,5,6,7-hexahydrocyclopenta[f]indazol-5-yl]methyl}-N-(2-hydroxyethyl)-4-(pyridin-2-yloxy)benzenesulfonamide]
Emax: 34.1% | EC50: 1030 nM

C[C@]12Cc3cnn(-c4ccc(F)cc4)c3C=C1CC[C@@H]2CN(CCO)S(=O)(=O)Cc1ccccc1 [Example 75, N-{[(4αR,5S)-1-(4-fluorophenyl)-4α-methyl-1,4,4α,5,6,7-hexahydrocyclopenta[f]indazol-5-yl]methyl}-N-(2-hydroxyethyl)-1-phenylmethanesulfonamide]
Emax: 14.4% | EC50: 450 nM

CNC(=O)Nc1ccc(S(=O)(=O)N(CCO)C[C@H]2CCC3=Cc4c(cnn4-c4ccc(F)cc4)C[C@@]32C)c(Cl)c1 [Example 76, 2-chloro-N-{[(4αR,5S)-1-(4-fluorophenyl)-4α-methyl-1,4,4α,5,6,7-hexahydrocyclopenta[f]indazol-5-yl]methyl}-N-(2-hydroxyethyl)-4-{[(methylamino)carbonyl]amino}-benzenesulfonamide]
Emax: 3.5% | EC50: 1960 nM

Cc1ccccc1S(=O)(=O)N(CCO)C[C@H]1CCC2=Cc3c(cnn3-c3ccc(F)cc3)C[C@@]21C [Example 77, N-{[(4αR,5S)-1-(4-fluorophenyl)-4α-methyl-1,4,4α,5,6,7-hexahydrocyclopenta[f]indazol-5-yl]methyl}-N-(2-hydroxyethyl)-2-methylbenzenesulfonamide]
Emax: 17.9% | EC50: 901 nM

C[C@]12Cc3cnn(-c4ccc(F)cc4)c3C=C1CC[C@@H]2CN(CCO)S(=O)(=O)c1ccccc1C#N [Example 78, 2-cyano-N-{[(4αR,5S)-1-(4-fluorophenyl)-4α-methyl-1,4,4α,5,6,7-hexahydrocyclopenta[f]indazol-5-yl]methyl}-N-(2-hydroxyethyl)benzenesulfonamide]
Emax: 50.6% | EC50: 652 nM

C[C@]12Cc3cnn(-c4ccc(F)cc4)c3C=C1CC[C@@H]2CN(CCO)S(=O)(=O)c1ccc(Oc2ccccc2)cc1 [Example 79, N-{[(4αR,5S)-1-(4-fluorophenyl)-4α-methyl-1,4,4α,5,6,7-hexahydrocyclopenta[f]indazol-5-yl]methyl}-N-(2-hydroxyethyl)-4-phenoxybenzenesulfonamide]
Emax: 7.5% | EC50: 1320 nM

C[C@]12Cc3cnn(-c4ccc(F)cc4)c3C=C1CC[C@@H]2CN(CCO)S(=O)(=O)c1cc(C(F)(F)F)ccc1Cl [Example 80, 2-chloro-N-{[(4αR,5S)-1-(4-fluorophenyl)-4α-methyl-1,4,4α,5,6,7-hexahydrocyclopenta[f]indazol-5-yl]methyl}-N-(2-hydroxyethyl)-5-(trifluoromethyl)benzenesulfonamide]
Emax: 6% | EC50: 1140 nM

C[C@]12Cc3cnn(-c4ccc(F)cc4)c3C=C1CC[C@@H]2CN(CCO)S(=O)(=O)c1ccccc1Cl [Example 81, 2-chloro-N-{[(4αR,5S)-1-(4-fluorophenyl)-4α-methyl-1,4,4α,5,6,7-hexahydrocyclopenta[f]indazol-5-yl]methyl}-N-(2-hydroxyethyl)benzenesulfonamide]
Emax: 17.2% | EC50: 461 nM

C[C@]12Cc3cnn(-c4ccc(F)cc4)c3C=C1CC[C@@H]2CN(CCO)S(=O)(=O)c1ccc(F)cc1F [Example 82, 2,4-difluoro-N-{[(4αR,5S)-1-(4-fluorophenyl)-4α-methyl-1,4,4α,5,6,7-hexahydrocyclopenta[f]indazol-5-yl]methyl}-N-(2-hydroxyethyl)benzenesulfonamide]
Emax: 61.1% | EC50: 287 nM

Cc1nn(C)c(Cl)c1S(=O)(=O)N(CCO)C[C@H]1CCC2=Cc3c(cnn3-c3ccc(F)cc3)C[C@@]21C [Example 83, 5-chloro-N-{[(4αR,5S)-1-(4-fluorophenyl)-4α-methyl-1,4,4α,5,6,7-hexahydrocyclopenta[f]indazol-5-yl]methyl}-N-(2-hydroxyethyl)-1,3-dimethyl-1H-pyrazole-4-sulfonamide]
Emax: 6.9% | EC50: 568 nM

C[C@]12Cc3cnn(-c4ccc(F)cc4)c3C=C1CC[C@@H]2CN(CCO)S(=O)(=O)c1ccccc1-c1ccccc1 [Example 84, N-{[(4αR,5S)-1-(4-fluorophenyl)-4α-methyl-1,4,4α,5,6,7-hexahydrocyclopenta[f]indazol-5-yl]methyl}-N-(2-hydroxyethyl)biphenyl-2-sulfonamide]
Emax: 19.7% | EC50: 442 nM

CC(=O)Nc1ccc(S(=O)(=O)N(CCO)C[C@H]2CCC3=Cc4c(cnn4-c4ccc(F)cc4)C[C@@]32C)cc1 [Example 85, N-(4-{[{[(4αR,5S)-1-(4-fluorophenyl)-4α-methyl-1,4,4α,5,6,7-hexahydrocyclopenta[f]indazol-5-yl]methyl}(2-hydroxyethyl)amino]sulfonyl}phenyl)acetamide]
Emax: 1.6% | EC50: 73.7 nM

C[C@]12Cc3cnn(-c4ccc(F)cc4)c3C=C1CC[C@@H]2CN(CCc1ccccc1F)S(=O)(=O)c1ccccc1F [Example 86, 2-fluoro-N-[2-(2-fluorophenyl)ethyl]-N-{[(4αR,5S)-1-(4-fluorophenyl)-4α-methyl-1,4,4α,5,6,7-hexahydrocyclopenta[f]indazol-5-yl]methyl}benzenesulfonamide]
Emax: 68.2% | EC50: 68.6 nM

CCCS(=O)(=O)N(CCc1ccccc1F)C[C@H]1CCC2=Cc3c(cnn3-c3ccc(F)cc3)C[C@@]21C [Example 87, N-[2-(2-fluorophenyl)ethyl]-N-{[(4αR,5S)-1-(4-fluorophenyl)-4α-methyl-1,4,4α,5,6,7-hexahydrocyclopenta[f]indazol-5-yl]methyl}propane-1-sulfonamide]
Emax: 65.1% | EC50: 231 nM

C[C@]12Cc3cnn(-c4ccc(F)cc4)c3C=C1CC[C@@H]2CN(CCc1ccccc1F)S(=O)(=O)Cc1cccc(C(F)(F)F)c1 [Example 88, N-[2-(2-fluorophenyl)ethyl]-N-{[(4αR,5S)-1-(4-fluorophenyl)-4α-methyl-1,4,4α,5,6,7-hexahydrocyclopenta[f]indazol-5-yl]methyl}-1-[3-(trifluoromethyl)phenyl]methanesulfonamide]
Emax: 25.3% | EC50: 618 nM

C[C@]12Cc3cnn(-c4ccc(F)cc4)c3C=C1CC[C@@H]2CN(CCc1ccccc1F)S(=O)(=O)CC(F)(F)F [Example 89, 2,2,2-trifluoro-N-[2-(2-fluorophenyl)ethyl]-N-{[(4αR,5S)-1-(4-fluorophenyl)-4α-methyl-1,4,4α,5,6,7-hexahydrocyclopenta[f]indazol-5-yl]methyl}ethanesulfonamide]
Emax: 81.4% | EC50: 119 nM
